# Measurements: patent US11053219B2, “Substituted pyridines as TYK2 inhibitors” (FronThera U.S. Pharmaceuticals LLC, priority 2018, dated 2021)
# Where two headings read alike, the source gives them in different places.
# Key:
# TYK2 (JH2 domain) = TYK2 (JH2 domain) (Homo sapiens (Human), UniProt P29597); assay: TYK2 JH2 domain binding assay (DiscoverX KINOMEscan); conditions: 11-point 3-fold dilution, duplicate
# Method: (§6) The assay is performed by combining three components: DNA-tagged kinase; immobilized ligand; and a test compound. The ability of the test compound to compete with the immobilized ligand is measured via quantitative PCR of the DNA tag.
# (§7) The liganded beads were blocked with excess biotin and washed with blocking buffer (SeaBlock (Pierce), 1% BSA, 0.05% Tween 20, 1 mM DTT) to remove unbound ligand and to reduce non-specific binding. […] Test compounds were prepared as 111× stocks in 100% DMSO. All test compounds were shipped to DiscoverX in DMSO with concentration of 10 mM. Kds were determined using an 11-point 3-fold compound dilution series with three DMSO control points. Each compound was tested in duplicate. […] The compounds were then diluted directly into the assays such that the final concentration of DMSO was 0.9%. All reactions performed in polypropylene 384-well plate. Each was a final volume of 0.02 ml. […] The kinase concentration in the eluates was measured by qPCR.
# (§8) The amount of kinase measured by qPCR (Signal; y-axis) is plotted against the corresponding compound concentration in nM in log 10 scale (x-axis). Binding constants (Kds) were calculated with a standard dose-response curve using the Hill equation:
# The Hill Slope was set to −1.
# Curves were fitted using anon-linear least square fit with the Levenberg-Marquardt algorithm.
# JAK1 (JH2 domain) = JAK1 (JH2 domain) (Homo sapiens (Human), UniProt P23458); assay: JAK1 JH2 domain binding assay (KINOMEscan)
# Sequence of JAK1 (JH2 domain) (P23458 583-855): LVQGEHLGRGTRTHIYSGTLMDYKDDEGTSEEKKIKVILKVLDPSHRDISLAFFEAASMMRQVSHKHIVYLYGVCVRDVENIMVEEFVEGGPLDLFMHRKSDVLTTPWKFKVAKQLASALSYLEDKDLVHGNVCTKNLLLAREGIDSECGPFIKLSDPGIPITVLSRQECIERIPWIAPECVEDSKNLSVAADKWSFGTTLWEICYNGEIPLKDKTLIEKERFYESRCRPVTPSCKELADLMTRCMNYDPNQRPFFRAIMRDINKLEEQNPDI
# Method: as §6, §7, §8
# (§9) Similar to the method for TYK2 JH2 binding described above, JAK1 JH2 and JAK2 JH1 domain binding assay was performed using DiscoverX's KINOMEscan™, but with change of kinase domain.
# JAK2 (JH1 domain) = JAK2 (JH1 domain) (Homo sapiens (Human), UniProt O60674); assay: JAK2 JH1 domain binding assay (KINOMEscan)
# Sequence of JAK2 (JH1 domain) (O60674 849-1124): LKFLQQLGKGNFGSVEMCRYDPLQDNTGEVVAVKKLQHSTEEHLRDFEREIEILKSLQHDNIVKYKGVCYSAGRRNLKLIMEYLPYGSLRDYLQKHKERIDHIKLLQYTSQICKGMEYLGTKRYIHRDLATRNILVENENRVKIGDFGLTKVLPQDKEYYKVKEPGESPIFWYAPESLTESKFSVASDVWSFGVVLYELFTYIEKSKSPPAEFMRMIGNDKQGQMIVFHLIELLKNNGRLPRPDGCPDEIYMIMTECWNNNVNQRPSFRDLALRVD
# Method: as §6, §7, §8, §9
# [1] = test system: INFα induced pSTAT5 in human PBMC; assay: INFα induced pSTAT5 in human PBMC; type: cell-based; conditions: human PBMC, INFα 5000 units/ml; read-out: p-STAT5 IC50
# [2] = test system: IL12-induced p-STAT4 in human PBMC; assay: IL-12 induced pSTAT4 in human PBMC; type: cell-based; conditions: human PBMC, IL-12 10 ng/ml; read-out: p-STAT4 IC50
# Method: Cells were seeded in a round bottom 96-well plate at the concentration of 200,000 cells/well. A 10-point dilution series of test compound (top dose 10 uM, 1:5 dilution) was added to the well using the liquid dispenser (Tecan D300e) and incubated for 1 hour at 37 C. Then human IL-12 recombinant protein (R&D Systems) was added to the well at the final concentration of 10 ng/ml and incubated for 15 minutes at 37 C. Cell lysates were prepared and analyzed by Phospho STAT4 (Tyr693) Kit (Meso Scale Discovery) following manufacturer's protocol.
# [3] = test system: INFα induced pSTAT3 in human PBMC; assay: INFα induced pSTAT3 in human PBMC; type: cell-based; conditions: human PBMC, INFα 5000 units/ml; read-out: p-STAT3 IC50
# Method: (§1) Fresh Human PBMCs were resuspended in RPMI 1640 medium with 10% FBS. Cells were seeded in a round bottom 96-well plate at the concentration of 200,000 cells/well. A 10-point dilution series of test compound (top dose 10 uM, 1:5 dilution) was added to the well using the liquid dispenser (Tecan D300e) and incubated for 1 hour at 37 C. Then human INFα recombinant protein (R&D Systems) was added to the well at the final concentration of 5000 units/ml and incubated for 15 minutes at 37 C. Cell lysates were prepared and analyzed by Phospho STAT3 (Tyr705) cellular kit (Cisbio) or Phospho STAT5 (Tyr693) Kit (Meso Scale Discovery) following manufacturer's protocol.
# For calculation of the inhibition rate, the relative pSTAT signal of each well=pSTAT signal of each well−the average pSTAT signal of baseline. The inhibition %=(the average pSTAT signal of INFα treatment wells−the relative of pSTAT signal in each compound containing well)/the average pSTAT signal of INFα treatment wells*100%
# The curve was plotted as the inhibition % (y-axis) vs. compounds concentration (x-axis) and was fitted with log(inhibitor) vs. normalized response—Variable slope by GraphPad Prism7.0.
# [4] = Pharmacokinetic study in C57BL/6 mice; type: in vivo; conditions: male, mouse, plasma
# Method: (§2) The pharmacokinetics of test compounds were evaluated in male C57BL/6 mice, Sprague Dawley rats, Beagle dogs, and cynomolgus monkeys when administered via oral gavage and IV injection. The animals were fasted overnight before administration. Plasma samples were collected predose and at 0.5, 1, 3, 6, 9, 12, and 24 hours postdose. The samples were analyzed by LC/MS/MS and the concentration of test compound at each timepoint was determined by linear regression. Pharmacokinetic parameters were calculated from the plasma concentrations using Pheonix WinNonlin.
# [5] = Pharmacokinetic study in Sprague Dawley rats; type: in vivo; conditions: rat, plasma; for Vd: read-out: Vdss
# Method: as §2
# [6] = Pharmacokinetic study in cynomolgus monkeys; type: in vivo; conditions: cynomolgus monkey, plasma; for Vd: read-out: Vdss
# Method: as §2
# [7] = Pharmacokinetic study in Beagle dogs; type: in vivo; conditions: dog, plasma; for Vd: read-out: Vdss
# Method: as §2
# [8] = test system: GM-CSF-induced pSTAT5 in human PBMC; assay: GM-CSF-induced pSTAT5 in human PBMC; type: cell-based; conditions: GM-CSF 10 ng/ml
# Method: as §1, with “IL-12” for “INFα”, “10 ng/ml” for “5000 units/ml”, “STAT4” for “STAT3 (Tyr705) cellular kit (Cisbio) or Phospho STAT5”
# (§3) For calculation of the inhibition rate, the relative pSTAT4 signal of each well=pSTAT4 signal of each well−the average pSTAT4 signal of baseline. The inhibition %=(the average pSTAT4 signal of IL-12 treatment wells−the relative of pSTAT4 signal in each compound containing well)/the average pSTAT4 signal of IL-12 treatment wells*100%
# (§4) The curve was plotted as the inhibition % (y-axis) vs. compounds concentration (x-axis) and was fitted with log(inhibitor) vs. normalized response—Variable slope by GraphPad Prism7.0. Control is BMS-986165:
# (§5) Similar to the method for IL-12 induced pSTAT4 in human PBMC described above, these assays were performed to check if test compounds have cross-activity to JAK1. JAK2 and JAK3 pathways in human PBMC. The procedure is as described with change of stimuli to 10 ng/ml of GM-CSF or 20 ng/ml of IL-2.
# [9] = test system: IL-2-induced pSTAT5 in human PBMC; assay: IL-2-induced pSTAT5 in human PBMC; type: cell-based; conditions: IL-2 20 ng/ml
# Method: as §1, with “IL-12” for “INFα”, “10 ng/ml” for “5000 units/ml”, “STAT4” for “STAT3 (Tyr705) cellular kit (Cisbio) or Phospho STAT5”
# as §3, §4, §5
# [10] = KINOMEscan, read-out: JAK1 (JH2 domain) binding Kd
# [11] = Oral (5 mg/kg), read-out: C0 or Cmax (Cmax)
# [12] = iv, I.V. (1 mg/kg), read-out: C0 or Cmax (C0)
# [13] = Oral (2 mg/kg), NA: no detectable
# [14] = Oral (2 mg/kg), read-out: C0 or Cmax (Cmax)
# Sequence of TYK2 (JH2 domain) (P29597 589-875): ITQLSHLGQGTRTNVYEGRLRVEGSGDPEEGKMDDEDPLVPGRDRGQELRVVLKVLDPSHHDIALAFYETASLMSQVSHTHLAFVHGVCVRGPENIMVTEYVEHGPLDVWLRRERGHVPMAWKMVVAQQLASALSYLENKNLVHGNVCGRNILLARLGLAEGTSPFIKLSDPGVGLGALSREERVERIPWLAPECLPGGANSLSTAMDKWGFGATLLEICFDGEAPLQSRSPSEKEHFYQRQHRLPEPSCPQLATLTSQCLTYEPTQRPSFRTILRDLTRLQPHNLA
smiles,measurement,setting,value
[2H]C([2H])([2H])NC(=O)c1nnc(NC(=O)N2CC(C)(C)C2)cc1Nc1cccc(-c2ncn(C)n2)c1OC [Example 38],Kd,TYK2 (JH2 domain),≤ 1 nM
same,Kd,JAK1 (JH2 domain); [10],< 100 nM
same,Kd,JAK2 (JH1 domain),1 to 10 µM
same,IC50,[1],< 100 nM
[2H]C([2H])([2H])NC(=O)c1nnc(N2CCN(C3CCOCC3)C2=O)cc1Nc1cccc(-c2ncn(C)n2)c1OC [Example 86],IC50,[2],< 100 nM
same,Kd,TYK2 (JH2 domain),≤ 1 nM
same,IC50,[3],100 to 1000 nM
[2H]C([2H])([2H])NC(=O)c1nnc(N2CCN(C(C3CC3)C(F)(F)F)C2=O)cc1Nc1cccc(-c2ncn(C)n2)c1OC (stereo not shown) [Example 87],IC50,[2],< 100 nM
same,Kd,TYK2 (JH2 domain),≤ 1 nM
same,IC50,[3],100 to 1000 nM
"[2H]C([2H])([2H])NC(=O)c1nnc(N2CCN(C(C)C)C2=O)cc1Nc1nccc(-c2ncn(C)n2)c1OC [Example 147, 6-(3-isopropyl-2-oxo-imidazolidin-1-yl)-4-[[3-methoxy-4-(1-methyl-1,2,4-triazol-3-yl)-2-pyridyl]amino]-N-(trideuteriomethyl)pyridazine-3-carboxamide]",Kd,TYK2 (JH2 domain),≤ 1 nM
same,Kd,JAK1 (JH2 domain); [10],< 100 nM
same,Kd,JAK2 (JH1 domain),> 10 µM
same,IC50,[1],< 100 nM
CC(C)(O)c1ccc(Nc2cc(Nc3ncccc3S(C)(=O)=O)c(C(=O)C3CC3)cn2)nc1F [Example 159],Kd,TYK2 (JH2 domain),≤ 1 nM
same,Kd,JAK1 (JH2 domain); [10],< 100 nM
same,Kd,JAK2 (JH1 domain),1 to 10 µM
same,IC50,[1],< 100 nM
CCC(=O)c1cnc(NC(=O)C2CC2)cc1Nc1nccc(-c2ncn(C)n2)c1OC [Example 163],Kd,TYK2 (JH2 domain),≤ 1 nM
same,Kd,JAK1 (JH2 domain),< 100 nM
same,Kd,JAK2 (JH1 domain),0.1 to 1 µM
same,IC50,[1],< 100 nM
COc1c(-c2ncn(C)n2)ccnc1Nc1cc(NC(=O)C2CC2)ncc1C(=O)C1CC1 [Example 166],Kd,JAK1 (JH2 domain); [10],< 100 nM
same,Kd,JAK2 (JH1 domain),1 to 10 µM
same,IC50,[1],< 100 nM
[2H]C([2H])([2H])CC(=O)c1cnc(NC(=O)C2CC2)cc1Nc1cccc(-c2ncn(C([2H])([2H])[2H])n2)c1OC [Example 195],Tmax,[4]; Oral (10 mg/kg),30 min
same,bioavailability,[4]; Oral (10 mg/kg),41.7%
same,half-life,[4]; Oral (10 mg/kg),127 min
same,Cmax,"[4]; Oral (10 mg/kg), read-out: C0 or Cmax (Cmax)",4300 ng/mL
same,clearance,"[4]; iv, I.V. (2 mg/kg)",4.16 mL/min/kg
same,half-life,"[4]; iv, I.V. (2 mg/kg)",148 min
same,Cmax,"[4]; iv, I.V. (2 mg/kg), read-out: C0 or Cmax (C0)",2950 ng/mL
same,Vd,"[4]; iv, I.V. (2 mg/kg), read-out: Vdss",0.688 L/kg
same,AUC,[5]; Oral (5 mg/kg),7440 ± 1400 ng·h/mL
same,Tmax,[5]; Oral (5 mg/kg),1.67 ± 0.58 h
same,bioavailability,[5]; Oral (5 mg/kg),46.7 ± 8.8%
same,half-life,[5]; Oral (5 mg/kg),142 ± 19.2 min
same,Cmax,[5]; [11],1260 ± 226 ng/mL
same,AUC,"[5]; iv, I.V. (1 mg/kg)",3190 ± 603 ng·h/mL
same,clearance,"[5]; iv, I.V. (1 mg/kg)",4.96 ± 0.91 mL/min/kg
same,half-life,"[5]; iv, I.V. (1 mg/kg)",128 ± 7.2 min
same,Cmax,[5]; [12],2150 ± 123 ng/mL
same,Vd,"[5]; iv, I.V. (1 mg/kg)",0.824 ± 0.11 L/kg
same,AUC,[6]; [13],5420 ± 3250 ng·h/mL
same,Tmax,[6]; [13],4 h
same,bioavailability,[6]; [13],16.6 ± 9.95%
same,half-life,[6]; [13],348 ± 43.8 min
same,Cmax,"[6]; Oral (2 mg/kg), NA: no detectable, read-out: C0 or Cmax (Cmax)",663 ± 497 ng/mL
same,AUC,"[6]; iv, I.V. (1 mg/kg)",16300 ± 664 ng·h/mL
same,clearance,"[6]; iv, I.V. (1 mg/kg)",0.898 ± 0.04 mL/min/kg
same,half-life,"[6]; iv, I.V. (1 mg/kg)",459 ± 33.6 min
same,Cmax,[6]; [12],1290 ± 106 ng/mL
same,Vd,"[6]; iv, I.V. (1 mg/kg)",0.624 ± 0.03 L/kg
same,AUC,[7]; Oral (2 mg/kg),1520 ± 1330 ng·h/mL
same,Tmax,[7]; Oral (2 mg/kg),1.33 ± 0.58 h
same,bioavailability,[7]; Oral (2 mg/kg),26.2 ± 23%
same,half-life,[7]; Oral (2 mg/kg),344 ± 121 min
same,Cmax,[7]; [14],285 ± 285 ng/mL
same,AUC,"[7]; iv, I.V. (1 mg/kg)",2900 ± 453 ng·h/mL
same,clearance,"[7]; iv, I.V. (1 mg/kg)",5.31 ± 0.93 mL/min/kg
same,half-life,"[7]; iv, I.V. (1 mg/kg)",401 ± 23.4 min
same,Cmax,[7]; [12],185 ± 8.4 ng/mL
same,Vd,"[7]; iv, I.V. (1 mg/kg)",3.04 ± 0.27 L/kg
same,IC50,[8],1 to 10 µM
same,IC50,[9],1000 to 10000 nM
same,IC50,[1],< 100 nM
[2H]C([2H])([2H])CC(=O)c1cnc(Nc2cccc(C#N)n2)cc1Nc1nccc(-c2ncn(C([2H])([2H])[2H])n2)c1OC [Example 199],Kd,TYK2 (JH2 domain),≤ 1 nM
same,Kd,JAK1 (JH2 domain); [10],< 100 nM
same,AUC,[5]; Oral (5 mg/kg),650 ± 34 ng·h/mL
same,Tmax,[5]; Oral (5 mg/kg),1.33 ± 0.58 h
same,bioavailability,[5]; Oral (5 mg/kg),18.4 ± 1%
same,half-life,[5]; Oral (5 mg/kg),99.6 ± 22.2 min
same,Cmax,[5]; [11],140 ± 32 ng/mL
same,AUC,"[5]; iv, I.V. (1 mg/kg)",705 ± 140 ng·h/mL
same,clearance,"[5]; iv, I.V. (1 mg/kg)",23.3 ± 4.9 mL/min/kg
same,half-life,"[5]; iv, I.V. (1 mg/kg)",104 ± 12 min
same,Cmax,[5]; [12],414 ± 56 ng/mL
same,Vd,"[5]; iv, I.V. (1 mg/kg)",3.27 ± 0.87 L/kg
same,AUC,[7]; Oral (2 mg/kg),67.6 ± 25 ng·h/mL
same,Tmax,[7]; Oral (2 mg/kg),1.33 ± 0.6 h
same,bioavailability,[7]; Oral (2 mg/kg),10.7 ± 3.9%
same,half-life,[7]; Oral (2 mg/kg),81.6 ± 3 min
same,Cmax,[7]; [14],23.4 ± 4 ng/mL
same,AUC,"[7]; iv, I.V. (1 mg/kg)",315 ± 188 ng·h/mL
same,clearance,"[7]; iv, I.V. (1 mg/kg)",63.2 ± 30 mL/min/kg
same,half-life,"[7]; iv, I.V. (1 mg/kg)",107 ± 35.4 min
same,Cmax,[7]; [12],334 ± 96 ng/mL
same,Vd,"[7]; iv, I.V. (1 mg/kg)",5.62 ± 1.13 L/kg
same,IC50,[8],1 to 10 µM
same,IC50,[9],100 to 1000 nM
same,Kd,JAK2 (JH1 domain),> 10 µM
same,IC50,[1],< 100 nM
[2H]C([2H])([2H])CC(=O)c1cnc(Nc2ccc(C(O)(C([2H])([2H])[2H])C([2H])([2H])[2H])c(F)n2)cc1Nc1ncccc1S(C)(=O)=O [Example 203],AUC,"[6]; iv, I.V. (1 mg/kg)",595 ± 48 ng·h/mL
same,clearance,"[6]; iv, I.V. (1 mg/kg)",27.6 ± 1.9 mL/min/kg
same,half-life,"[6]; iv, I.V. (1 mg/kg)",57.1 ± 13.2 min
same,Cmax,[6]; [12],787 ± 61 ng/mL
same,Vd,"[6]; iv, I.V. (1 mg/kg)",0.931 ± 0.01 L/kg
same,IC50,[8],1 to 10 µM
same,IC50,[9],100 to 1000 nM
same,IC50,[1],< 100 nM
